Test results published in US7989464B2, “mGluR1 antagonists as therapeutic agents” (Schering Corporation, priority 2004, dated 2011).
pIC50: −log10 of the molar value. Read-outs that look alike come from different tables or passages of the source.

Target: T1, hmGluR1 receptor (Homo sapiens, UniProt Q13255)
T1 construct: expressed in transfected cells
Test: IC50 determination: intracellular calcium mobilization (FLIPR) upon Quisqualate stimulation in CHO cells stably expressing hmGluR1
Type: cell-based
Conditions: against Quisqualate 1 μM (EC80)
Description: A CHO cell line stably expressing hmGluR1 receptor was established. One day prior to assay, cells were split in growth media at concentration of 50,000 cells/well in a volume of 100 μl and seeded into black clear-bottom 96-well plates. After two to six hours, when cells were well attached to the plate, growth medium was replaced with assay medium (100 μL) consisting of DMEM high glucose, supplemented with GPT (1 U/mL) and Sodium pyruvate, 1 mM. Following overnight incubation, medium was discarded and cells were loaded for 2 h with dye from the Calcium 3 Assay Reagent Kit (Molecular Devices, # R8033), prepared according to manufacturers' instructions. […] Test compounds were added 10 minutes before Quisqualate.

[1] = FLIPR calcium mobilization, read-out: IC50 Class
[2] = class symbols, read-out: mGIuR 1 IC50
[3] = FLIPR calcium mobilization, read-out: mGluR1 IC50

T1 sequence (Q13255 19-1194): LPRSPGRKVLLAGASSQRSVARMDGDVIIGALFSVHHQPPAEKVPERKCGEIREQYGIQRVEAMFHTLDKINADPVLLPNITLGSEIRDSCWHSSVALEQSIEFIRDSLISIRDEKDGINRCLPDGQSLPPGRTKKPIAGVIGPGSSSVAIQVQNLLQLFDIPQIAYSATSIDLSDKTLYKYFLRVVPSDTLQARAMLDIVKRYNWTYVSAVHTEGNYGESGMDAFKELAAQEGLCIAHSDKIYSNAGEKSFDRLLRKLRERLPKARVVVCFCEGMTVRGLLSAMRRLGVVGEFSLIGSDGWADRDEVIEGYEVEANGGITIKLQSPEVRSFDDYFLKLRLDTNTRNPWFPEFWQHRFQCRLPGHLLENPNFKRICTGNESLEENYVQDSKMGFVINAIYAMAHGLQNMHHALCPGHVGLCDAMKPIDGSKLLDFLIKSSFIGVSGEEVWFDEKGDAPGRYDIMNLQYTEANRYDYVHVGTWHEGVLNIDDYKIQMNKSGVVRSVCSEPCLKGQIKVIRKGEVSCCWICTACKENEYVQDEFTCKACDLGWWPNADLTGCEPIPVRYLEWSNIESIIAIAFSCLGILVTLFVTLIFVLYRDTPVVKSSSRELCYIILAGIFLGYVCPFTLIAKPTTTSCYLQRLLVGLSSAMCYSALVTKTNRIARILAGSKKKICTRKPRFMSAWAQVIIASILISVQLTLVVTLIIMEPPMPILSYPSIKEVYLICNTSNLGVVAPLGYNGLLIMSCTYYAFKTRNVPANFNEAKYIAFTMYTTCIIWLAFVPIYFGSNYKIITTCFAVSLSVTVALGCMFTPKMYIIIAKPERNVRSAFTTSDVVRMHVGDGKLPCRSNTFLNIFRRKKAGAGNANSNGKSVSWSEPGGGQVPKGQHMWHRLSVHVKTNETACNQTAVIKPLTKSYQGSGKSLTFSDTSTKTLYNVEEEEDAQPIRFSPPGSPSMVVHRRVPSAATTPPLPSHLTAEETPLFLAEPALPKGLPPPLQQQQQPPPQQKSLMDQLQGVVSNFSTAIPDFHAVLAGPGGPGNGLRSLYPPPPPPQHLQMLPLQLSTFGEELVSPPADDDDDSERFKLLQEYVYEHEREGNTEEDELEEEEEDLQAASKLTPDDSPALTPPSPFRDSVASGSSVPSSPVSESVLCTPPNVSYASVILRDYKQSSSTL

Compound	pIC50 [1]	pIC50 [2]	also measured
C=Cc1ccnc2sc3c(=O)n(-c4ccc(Cl)cc4)cnc3c12 [29E]	> 7.30	–	–
CNc1nncc2sc3c(=O)n(-c4ccc(C)cc4)cnc3c12 [167H]	6.00 to 6.82	–	–
CN(CCO)c1ccnc2sc3c(=O)n(-c4ccc5c(c4)CCO5)cnc3c12 [28CL]	> 7.30	–	–
C=CCNc1nncc2sc3c(=O)n(-c4ccc(C)cc4)cnc3c12 [167C]	6.00 to 6.82	–	–
CN(C)c1ccnc2sc3c(=O)n(C4CCC5(CC4)OCCO5)cnc3c12 [compound 19]	–	6.00 to 6.82	–
Cc1ccc(-n2cnc3c(sc4ncnc(N(C)C)c43)c2=O)cn1 [95O]	–	> 7.30	–
O=c1c2sc3nccc(N4CCC4)c3c2ncn1-c1ccc(Cl)cc1 [28GJ]	6.82 to 7.30	–	–
O=c1c2sc3ncnc(NCC4CC4)c3c2ncn1-c1ccc(Cl)cc1 [95DR]	6.82 to 7.30	–	–
C=C(C)CNc1ncnc2sc3c(=O)n(-c4ccc5sccc5c4)cnc3c12 [95FE]	> 7.30	–	–
Cc1ccc(-n2cnc3c(sc4nc(S)nc(N)c43)c2=O)cc1 [71F]	> 7.30	–	–
Cc1ccc(-n2cnc3c(sc4nccc(C(C)C)c43)c2=O)cc1 [29F]	> 7.30	–	–
C#CCNc1ccnc2sc3c(=O)n(-c4ccc(OC)cc4)cnc3c12 [28DQ]	> 7.30	–	–
CC(=O)c1c(C)nc2sc3c(=O)n(-c4ccccc4)cnc3c2c1-c1ccc(Cl)cc1 [P-9]	–	6.00 to 6.82	–
CNc1ccnc2sc3c(=O)n(-c4ccc(OC)cc4F)cnc3c12 [28BK]	> 7.30	–	–
Cc1nc2cc(-n3cnc4c(sc5nccc(N(C)C)c54)c3=O)ccc2o1 [7BU]	–	< 6.00	–
CCNc1ccnc2sc3c(=O)n(-c4ccc5c(c4)CCO5)cnc3c12 [28BQ]	> 7.30	–	pIC50 [3]: 8.80
CCNc1ccnc2sc3c(=O)n(-c4ccc(S)c(NC=O)c4)cnc3c12 [131G]	–	> 7.30	–
CN(C)c1ccnc2sc3c(=O)n(-c4ccccc4)cnc3c12 [7D]	–	> 7.30	–
CN(C)c1cncc2sc3c(=O)n(-c4ccc5scnc5c4)cnc3c12 [37B]	–	6.00 to 6.82	–
COCCCNc1ccnc2sc3c(=O)n(-c4ccc(C)cc4)cnc3c12 [28CZ]	> 7.30	–	–
O=c1c2sc3ncnc(Nc4ccccc4)c3c2ncn1-c1ccc2scnc2c1 [95GE]	< 6.00	–	–

Compound	pIC50 [1]	pIC50 [2]	also measured
Cc1ccc(-n2cnc3c(sc4nccc(CN(C)C)c43)c2=O)cc1 [169A]	< 6.00	–	–
COc1ccc(-n2cnc3c(sc4nccnc43)c2=O)cc1 [compound 40]	–	< 6.00	–
CNc1cc(O)nc2sc3c(=O)n(-c4ccc(C)cc4)cnc3c12 [172B]	> 7.30	–	–
CCN(C)c1ncnc2sc3c(=O)n(-c4ccc(C)cc4)cnc3c12 [95H]	–	> 7.30	–
CN(C)c1ccnc2sc3c(=O)n(Cc4cccs4)cnc3c12 [15I]	–	6.00 to 6.82	–
CN(C)c1ccnc2sc3c(=O)n(CCN4CCOCC4)cnc3c12 [15N]	–	< 6.00	–
Cc1ccc(-n2cnc3c(sc4ncnc(NCCCO)c43)c2=O)cc1 [95DL]	> 7.30	–	–
CSCCNc1ncnc2sc3c(=O)n(-c4ccc(C)cc4)cnc3c12 [95FR]	> 7.30	–	–
COc1ccc(-n2cnc3c(sc4nccc(N)c43)c2=O)cc1 [72C]	–	> 7.30	–
O=c1c2sc3nccc(NC4CCCCC4)c3c2ncn1C1CCCCC1 [28C]	–	< 6.00	–
CN(C)c1ccnc2sc3c(=O)n(-c4ccc(Br)c(F)c4)cnc3c12 [7DV]	–	> 7.30	pIC50 [3]: 8.77
COc1ccc(-n2cnc3c(sc4nccc(NCCO)c43)c2=O)cc1 [28DB]	> 7.30	–	–
CN(C)c1cccc2sc3c(=O)n(-c4cccc(F)c4F)cnc3c12 [103O]	< 6.00	–	–
CSc1ccc(-n2cnc3c(sc4nc(C)cc(N(C)C)c43)c2=O)cc1 [7DA]	–	6.00 to 6.82	–
CCNc1c(C#N)cnc2sc3c(=O)n(C4CCCCC4)cnc3c12 [compound 50]	–	6.00 to 6.82	–
CN(C)c1ccnc2sc3c(=O)n(-c4ccc(I)cc4)cnc3c12 [7M]	–	< 6.00	–
Cc1ccc(-n2cnc3c(sc4nccc(N5CC(O)C5)c43)c2=O)cc1 [28DH]	6.00 to 6.82	–	–
CCCNc1ccnc2sc3c(=O)n(C4CCCCC4)cnc3c12 [28Q]	–	6.82 to 7.30	–
CN(c1ncnc2sc3c(=O)n(-c4ccc(Cl)cc4)cnc3c12)C1CC1 [95DU]	> 7.30	–	–
COc1ccc(-n2cnc3c(sc4ncnc(Nc5ccccc5)c43)c2=O)cc1F [95GA]	< 6.00	–	–
CN(C)c1ccnc2sc3c(=O)n(-c4cccc(Br)c4)cnc3c12 [7DL]	–	> 7.30	–

Compound	pIC50 [1]	pIC50 [2]	also measured
CN(C)c1cccc2sc3c(=O)n(-c4cccc(Cl)c4)cnc3c12 [103H]	< 6.00	–	–
C=CCNc1ccnc2sc3c(=O)n(-c4ccc(Br)cc4)cnc3c12 [28DR]	> 7.30	–	–
COc1ccc(-n2cnc3c(sc4nccc(NCC(F)(F)F)c43)c2=O)c(F)c1 [28BM]	6.82 to 7.30	–	–
Cc1ccc(-n2cnc3c(sc4nccc(N)c43)c2=O)cc1 [72H]	–	> 7.30	–
CC#Cc1ccnc2sc3c(=O)n(-c4ccc(Cl)cc4)cnc3c12 [compound 177]	< 6.00	–	–
O=c1c2sc3ncnc(NC4CC4)c3c2ncn1-c1ccc(Br)cc1F [95AX]	6.82 to 7.30	–	–
CN(C)c1ccnc2sc3c(=O)n(CC4CCCO4)cnc3c12 (stereo not drawn) [15F]	–	6.00 to 6.82	–
Cc1ccc(-n2cnc3c(sc4nc(C5CC5)nc(N)c43)c2=O)cc1 [71D]	6.00 to 6.82	–	–
Cc1ccc(-n2cnc3c(sc4ncnc(NCC(C)(C)C)c43)c2=O)cc1 [95FP]	< 6.00	–	–
O=c1c2sc3nccc(NC4CC4)c3c2ncn1-c1ccc(Br)cc1 [28GY]	> 7.30	–	–
COc1ccc(-n2cnc3c(sc4nccc(NCCCO)c43)c2=O)cc1 [28HK]	> 7.30	–	–
CN(C)c1ccnc2sc3c(=O)n(Cc4ccsc4)cnc3c12 [15V]	–	6.00 to 6.82	–
Cc1ccc(Nn2cnc3c(sc4nccc(N(C)C)c43)c2=O)cc1 [60C]	–	> 7.30	–
CNc1ccnc2sc3c(=O)n(-c4ccc5c(c4)OCO5)cnc3c12 [7CB]	–	> 7.30	–
COc1ccc(-n2cnc3c(sc4nc(C)cc(N(C)C)c43)c2=O)cc1 [7CJ]	–	6.82 to 7.30	–
COc1ccc(-n2cnc3c(sc4nccc(Nc5ccccn5)c43)c2=O)cc1 [28FO]	6.00 to 6.82	–	–
COc1ccc(-n2cnc3c(sc4nccc(NC5CC5)c43)c2=O)c(F)c1 [131H]	6.82 to 7.30	–	–
C=C(C)CNc1ccnc2sc3c(=O)n(-c4ccc5c(c4)OCO5)cnc3c12 [28FG]	6.00 to 6.82	–	–
Cc1ccc(-n2cnc3c(sc4nccc(N(C)C)c43)c2=O)cc1I [7DY]	–	6.82 to 7.30	–
CN(C)c1ccnc2sc3c(=O)n(Cc4ccc(Cl)c(Cl)c4)cnc3c12 [7S]	–	< 6.00	–
COc1ccc(-n2cnc3c(sc4nccc(N(C)C)c43)c2=O)cn1 [7BW]	–	> 7.30	–

Compound	pIC50 [1]	pIC50 [2]	also measured
CNc1ncnc2sc3c(=O)n(-c4ccc(Cl)cc4)cnc3c12 [95DB]	> 7.30	–	–
O=c1c2sc3nccc(N4CCC4)c3c2ncn1C1CCCCC1 [28V]	–	6.00 to 6.82	–
CCN(C)c1ccnc2sc3c(=O)n(-c4ccc5c(c4)CCO5)cnc3c12 [28CH]	> 7.30	–	–
C=Cc1ccc(-n2cnc3c(sc4nccc(N(C)C)c43)c2=O)cc1 [compound 136]	–	> 7.30	–
COCCn1cnc2c(sc3ncnc(NC4CC4)c32)c1=O [95EC]	< 6.00	–	–
CCc1ncnc2sc3c(=O)n(-c4ccc(Cl)cc4)cnc3c12 [compound 202]	> 7.30	–	–
CN(C)c1cccc2sc3c(=O)n(-c4ccc(Cl)cc4)cnc3c12 [103A]	–	6.82 to 7.30	–
CCNc1ccnc2sc3c(=O)n(-c4ccc(O)cc4)cnc3c12 [131B]	–	> 7.30	–
CCOC(=O)CSc1nc2c(sc3nc(C)cc(C)c32)c(=O)n1-c1ccc(Cl)cc1 [P-7]	–	6.00 to 6.82	–
COc1ccnc2sc3c(=O)n(-c4ccc(Br)cc4)cnc3c12 [28FR]	> 7.30	–	–
C#CCNc1ncnc2sc3c(=O)n(-c4ccc5scnc5c4)cnc3c12 [95EL]	> 7.30	–	–
Cc1ccc(-n2cnc3c(sc4nccc(O)c43)c2=O)cc1 [26C]	–	< 6.00	–
C#CCNc1ncnc2sc3c(=O)n(-c4ccc(OC)c(F)c4)cnc3c12 [95EK]	6.00 to 6.82	–	–
O=c1c2sc3ncccc3c2ncn1-c1ccc(Cl)cc1 [183B]	6.00 to 6.82	–	–
CCNc1ncnc2sc3c(=O)n(-c4ccc5ncsc5c4)cnc3c12 [95BK]	> 7.30	–	–
Cc1ccc(-n2c(C)nc3c(sc4nccc(NC5CC5)c43)c2=O)cc1 [113J]	–	6.00 to 6.82	–
CN(C)c1ccnc2sc3c(=O)n(C4CCC(C(C)(C)C)CC4)cnc3c12 (stereo not drawn) [15M]	–	< 6.00	–
CC(c1ccccc1)n1cnc2c(sc3nccc(N(C)C)c32)c1=O (stereo not drawn) [7AH]	–	6.82 to 7.30	–
CN(C)c1ccnc2sc3c(=O)n(-c4ccc5sccc5c4)cnc3c12 [7BM]	–	> 7.30	pIC50 [3]: 8.83
CN(C)c1ccnc2sc3c(=O)n(-c4ccc5ncsc5c4)cnc3c12 [7AS]	–	> 7.30	–
C#CCNc1ncnc2sc3c(=O)n(-c4ccc5ncsc5c4)cnc3c12 [95EM]	6.00 to 6.82	–	–
